Patent US12528818B2, “Compositions and methods for inhibition of RAS” (Leidos Biomedical Research, Inc., priority 2021, dated 2026)

What follows are molecules tested on pERK in NCI-H358 cells (assay: Cell-based pERK HTRF assay (pERK inhibition in H358 cells)). Details: Homo sapiens, NCI-H358, 0.5 h, pERK inhibition IC50, NCI-H358 cells, 30 min incubation; read-out: PERK in H358 cell.

Row | IC50 [nM] | SMILES
1 | < 100 | C=CC(=O)N1CCN(c2nc(OC[C@@]34CCCN3C[C@H](F)C4)nc3c(F)c(-c4ccc(F)c5sc(N)nc45)c(C(F)(F)F)cc23)C[C@H]1C [Compound 207]
2 | < 100 | C=CC(=O)N1C[C@H](N(C)c2nc(OC[C@@]34CCCN3C[C@H](F)C4)nc3c(F)c(-c4ccc(F)c5sc(N)nc45)c(C(F)(F)F)cc23)C[C@H]1C [Compound 274]
3 | > 1000 | C=CC(=O)NCCNc1nc(C2CCN(C)CC2)nc2c(F)c(-c3ccc(F)c4sc(N)nc34)c(Cl)cc12 [Compound 64]
4 | < 100 | C=CC(=O)N1CCC(N(C)c2nc(OC[C@@]34CCCN3C[C@H](OC)C4)nc3c(F)c(-c4ccc(F)c5sc(N)c(C#N)c45)c(Cl)cc23)[C@H]1C (stereo partly shown) [Compound 474]
5 | > 1000 | C=CC(=O)N1C[C@@H]2C[C@H]1[C@@H]2N(C)c1nc(OC[C@@]23CCCN2C[C@H](F)C3)nc2c(F)c(-c3ccc(F)c4sc(N)nc34)c(C(F)(F)F)cc12 [Compound 282]
6 | 100 to 1000 | C=CC(=O)N1CC(N(C)c2nc(OC[C@]34CCCN3C[C@H](F)C4)nc3c(F)c(-c4ccc(F)c5sc(N)nc45)c(Cl)cc23)C1 [Compound 169]
7 | < 100 | C=CC(=O)N1C[C@H](C)N(c2nc(OC[C@@]34CCCN3C[C@H](F)C4)nc3c(F)c(-c4ccc(F)c5sc(N)c(C#N)c45)c(C#N)cc23)C[C@H]1C [Compound 324, 4-((2S,5R)-4-acryloyl-2,5-dimethylpiperazin-1-yl)-7-(2-amino-3-cyano-7-fluorobenzo[b]thiophen-4-yl)-8-fluoro-2-(((2R,7aS)-2-fluorotetrahydro-1H-pyrrolizin-7a(5H)-yl)methoxy)quinazoline-6-carbonitrile]
8 | < 100 | C=CC(=O)N1CCC(N(C)c2nc(OC[C@@H]3CC4(CC4)CN3C)nc3c(F)c(-c4ccc(F)c5sc(N)c(C#N)c45)ccc23)[C@H]1COC (stereo partly shown) [Compound 433]
9 | < 100 | C=CC(=O)N1CCC(N(C)c2nc(OC[C@@H]3C[C@@H](OC)CN3C)nc3c(F)c(-c4ccc(F)c5sc(N)c(C#N)c45)ccc23)[C@H]1COC (stereo partly shown) [Compound 424]
10 | < 100 | C=CC(=O)N1CCN(c2ncnc3c(F)c(-c4ccc(F)c5sc(N)nc45)c(Cl)c(OC)c23)CC1 [Compound 82]
11 | < 100 | C=CC(=O)N1C[C@@H](F)[C@@H](N(C)c2nc(OC[C@@H]3CC4(CC4)CN3C)nc3cc(-c4ccc(F)c5sc(N)c(C#N)c45)c(C(F)(F)F)cc23)C1 [Compound 357]
12 | < 100 | C=CC(=O)N1C[C@@H](F)[C@@H](N(C)c2nc(OC[C@@]34CCCN3C[C@H](F)C4)nc3c(F)c(-c4ccc(F)c5sc(N)nc45)ccc23)C1 [Compound 353]
13 | < 100 | C=CC(=O)N1CCC(N(C)c2nc(OC[C@@H]3C[C@@H](F)CN3C)nc3c(F)c(-c4ccc(F)c5sc(N)c(C#N)c45)c(C(F)(F)F)cc23)[C@H]1C (stereo partly shown) [Compound 399]
14 | < 100 | C=CC(=O)N1C[C@@H](F)[C@@H](N(C)c2nc(OCC34CCCN3CCC4)nc3cc(-c4ccc(F)c5sc(N)c(C#N)c45)c(C(F)(F)F)cc23)C1 [Compound 369]
15 | < 100 | C=CC(=O)N1[C@H](C)CN(c2nc(OC[C@@]34CCCN3C[C@@H](F)C4)nc3c(F)c(-c4ccc(F)c5sc(N)nc45)c(C(F)(F)F)cc23)C[C@@H]1C [Compound 224]

More lines, now with the values behind:

Row | SMILES | IC50 [nM]
16 | N#CN1CC(Nc2nc(OCC34CCCN3CCC4)nc3c(F)c(-c4ccc(F)c5sc(N)nc45)c(Cl)cc23)C1 [Compound 58] | 100 to 1000
17 | C=CC(=O)N1CC(N(C)c2nc(OC[C@@]34CCCN3C[C@H](F)C4)nc3c(F)c(-c4ccc(F)c5sc(N)nc45)c(Cl)cc23)C1 [Compound 247] | < 100
18 | CC#CC(=O)N1CC[C@@H]2[C@H]1CN2c1nc(OCC23CCCN2CCC3)nc2c(F)c(-c3ccc(F)c4sc(N)nc34)c(-c3ccoc3)cc12 [Compound 120] | > 1000
19 | CC#CC(=O)N(C)C1CN(c2nc(OCC34CCCN3CCC4)nc3c(F)c(-c4ccc(F)c5sc(N)nc45)c(Cl)cc23)C1 [Compound 172] | > 1000
20 | C=CC(=O)N1C[C@H](N(C)c2nc(OC[C@@]34CCCN3C[C@H](F)C4)nc3c(F)c(-c4ccc(F)c5sc(N)c(C#N)c45)ccc23)C[C@H]1C [Compound 319] | < 100
21 | C=CC(=O)N1CC[C@@H](N(C)c2nc(OC[C@@]34CCCN3C[C@H](F)C4)nc3c(F)c(-c4ccc(F)c5sc(N)nc45)c(OC(F)(F)F)cc23)C1 [Compound 238, 1-((3R)-3-((7-(2-amino-7-fluorobenzo[d]thiazol-4-yl)-8-fluoro-2-(((2R,7aS)-2-fluorotetrahydro-1H-pyrrolizin-7a(5H)-yl)methoxy)-6-(trifluoromethoxy)quinazolin-4-yl)(methyl)amino)pyrrolidin-1-yl)prop-2-en-1-one] | 100 to 1000
22 | C=CC(=O)N1CC(N(c2nc(OC[C@]34CCCN3C[C@H](F)C4)nc3c(F)c(-c4ccc(F)c5sc(N)nc45)c(C(F)(F)F)cc23)C2CC2)C1 [Compound 178, 1-(3-((7-(2-amino-7-fluorobenzo[d]thiazol-4-yl)-8-fluoro-2-(((2R,7aR)-2-fluorotetrahydro-1H-pyrrolizin-7a(5H)-yl)methoxy)-6-(trifluoromethyl)quinazolin-4-yl)(cyclopropyl)amino)azetidin-1-yl)prop-2-en-1-one] | 100 to 1000
23 | C=CC(=O)N1CC[C@@H](N(C)c2nc(OC[C@@]34CCCN3C[C@H](F)C4)nc3c(F)c(-c4ccc(F)c5sc(C(F)F)nc45)c(C(F)(F)F)cc23)C1 [Compound 310] | > 1000
24 | C=CC(=O)N1CCC(N(C)c2nc(OC[C@@H]3C[C@@H](F)CN3C)nc3c(F)c(-c4ccc(F)c5sc(N)c(C#N)c45)ccc23)[C@H]1C (stereo partly shown) [Compound 429] | < 100
25 | C=CC(=O)N1C[C@H](C)N(c2nc(OCC3(CN4CC[C@@H](F)C4)CC3)nc3c(F)c(-c4ccc(F)c5sc(N)nc45)c(C(F)(F)F)cc23)C[C@H]1C [Compound 286] | < 100
26 | C=CC(=O)N1CCN(c2nc(OCC34CCCN3CCC4)nc3c(F)c(-c4ccc(F)c5sc(N)nc45)c(Cl)cc23)CC1 [Compound 67] | < 100
27 | C=CC(=O)N1CCC(N(C)c2nc(OC[C@@H]3CCCN3CC)nc3c(F)c(-c4ccc(F)c5sc(N)c(C#N)c45)c(Cl)cc23)[C@H]1C (stereo partly shown) [Compound 464] | < 100
28 | C=CC(=O)N1CC[C@@H]2[C@H]1CN2c1nc(OC[C@@H]2C[C@@H](F)CN2C)nc2c(F)c(-c3ccc(F)c4sc(N)nc34)c(C(F)(F)F)cc12 [Compound 138] | < 100

Same assay, conditions: pERK inhibition IC50, NCI-H358 cells, 30 min incubation; read-out: PERK in H358 cell

Row | IC50 [nM] | SMILES
29 | < 100 | C=CC(=O)N1CC[C@@H](N(C)c2nc(OC[C@@]34CCCN3C[C@H](F)C4)nc3c(F)c(-c4ccc(F)c5sc(N)c(C#N)c45)c(C(F)(F)F)cc23)[C@H]1C (single isomer, unassigned) [Compound 434]
30 | 100 to 1000 | C=CC(=O)N1CC[C@@H](N(C)c2nc(OC[C@]34CCCN3C[C@H](OC)C4)nc3c(F)c(-c4ccc(F)c5sc(N)nc45)c(C(F)(F)F)cc23)C1 (atropisomer, axis not shown) [Compound 278]
31 | < 100 | C=CC(=O)N1CC[C@H](N(C)c2nc(OC[C@@]34CCCN3C[C@H](F)C4)nc3c(F)c(-c4ccc(F)c5sc(N)c(C#N)c45)c(C(F)(F)F)cc23)[C@@H]1C (single isomer, unassigned) [Compound 473]
